# Test results: patent publication US9814696B2, “Use of coumarin derivatives for the preparation of drugs for treating skin diseases” (UNIVERSITE PIERRE ET MARIE CURIE (PARIS 6), priority 2011, dated 2017)
# Read-outs that look alike come from different tables or passages of the source.
# Legend:
# KLK14 = molecular target: T1, KLK14 (Homo sapiens, UniProt Q9P0G3); test: KLK14 enzyme inhibition assay, fluorogenic substrate Boc-Val-Pro-Arg-AMC; type: biochemical; conditions: for IC50 / inhibition at 100 µM / inhibition at 50 µM: 37° C., 15 min of incubation, pH 8
# T1 sequence (Q9P0G3 25-251): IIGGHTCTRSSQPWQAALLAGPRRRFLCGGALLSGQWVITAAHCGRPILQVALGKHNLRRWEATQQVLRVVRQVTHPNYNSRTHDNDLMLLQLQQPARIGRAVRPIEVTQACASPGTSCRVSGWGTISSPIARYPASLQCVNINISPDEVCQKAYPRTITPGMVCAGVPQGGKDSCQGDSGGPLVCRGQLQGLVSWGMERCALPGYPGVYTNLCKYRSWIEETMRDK
# Method: (§1) Kallikreins KLK5, KLK7 and KLK14 activities were determined by monitoring the hydrolysis of the appropriate fluorogenic substrate (λexc=355, λem=460 nm) for 15 min at 37° C. in the presence of the untreated kallikrein (control) or kallikrein that had been incubated with a test compound. Substrate and compounds were previously dissolved in DMSO, with the final solvent concentration kept constant at 2% (v/v) (KLK 5 and 14), and 4% (v/v) (KLK7). The composition of the activity buffers (pH 8.0) was 100 mM Tris-HCl, 150 mM NaCl, 0.01% (v/v) Tween 20 for the KLK5 assay, and 100 mM Tris-HCl, 1M NaCl, 0.01% (v/v) Tween 20 in the KLK 7 and 14 assays. The final concentrations were 0.6 nM (KLK5) and 100 μM (Boc-Val-Pro-Arg-AMC) (KLK5 assay), 8 nM (KLK7) and 40 μM (Suc-Leu-Leu-Val-Tyr-AMC, AMC: 7-amino-4-methyl-coumarin) (KLK7 assay), and 0.17 nM (KLK14) and 10 μM (Boc-Val-Pro-Arg-AMC) (KLK14 assay). Using the appropriate substrate, the coumarinic compounds (0.01-100 μM) were tested in duplicate for each inhibitor concentration to detect their inhibitory potential. The enzyme and the inhibitors were incubated for 15 min before the determination of the enzyme activity. Initial rates determined in control experiments (V0) were considered to be 100% of the peptidase activity; initial rates below 100% were considered to be inhibitions. The inhibitory activity of compounds was expressed as IC50 (inhibitor concentrations giving 50% inhibition). The values of IC50 were calculated by fitting the experimental data to the equation: % Inhibition=100×(1−Vi/V0)=100[I]0/(IC50+[I]0), or equation: % Inhibition=100[I]0^nH/(IC50^nH+[I]0^nH),nH is the Hill number.
# (§2) The tests were realized at 37° C. after 15 min of incubation at pH 8.
# KLK5 = molecular target: T2, KLK5 (Homo sapiens, UniProt Q9Y337); test: KLK5 enzyme inhibition assay, fluorogenic substrate Boc-Val-Pro-Arg-AMC; type: biochemical; conditions: 37° C., 15 min of incubation, pH 8
# T2 sequence (Q9Y337 23-293): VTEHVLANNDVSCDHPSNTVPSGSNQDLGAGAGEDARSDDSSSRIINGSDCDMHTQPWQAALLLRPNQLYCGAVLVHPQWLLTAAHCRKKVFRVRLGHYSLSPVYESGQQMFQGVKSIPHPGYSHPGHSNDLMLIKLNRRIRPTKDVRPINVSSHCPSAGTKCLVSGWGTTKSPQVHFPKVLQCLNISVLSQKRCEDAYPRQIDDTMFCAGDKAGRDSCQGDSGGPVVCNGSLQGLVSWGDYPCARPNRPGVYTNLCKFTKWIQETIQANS
# Method: as §1, §2
# [1] = tested on: normal human keratinocytes; test: Neutral red uptake (NRU) cytotoxicity test / cell viability; type: cell-based; set-up: cytotoxicity, neutral red uptake test (FIG. 5): dose or concentration left out as unconfirmed; conditions: 48 h; for cytotoxicity, neutral red uptake test: 1 and 10 μM; for cytotoxicity, neutral red uptake test / cytotoxicity, neutral red uptake test (FIG. 5): human normal keratinocytes; for Toxicity, neutral red uptake test: normal human keratinocytes
# Excerpt: The NRU cytotoxicity assay procedure is a cell survival/viability chemosensitivity assay based on the ability of viable cells to incorporate and bind neutral red (NR), a supravital dye. NR is a weak cationic dye that readily penetrates cell membranes by non-ionic diffusion and accumulates intracellularly in lysosomes. Alterations of the cell surface or the sensitive lysosomal membrane lead to lysosomal fragility and other changes that gradually become irreversible. Such changes caused by the action of xenobiotics result in a decreased uptake and binding of NR. It is thus possible to distinguish between viable, damaged, or dead cells, which is the basis of this assay. After treatment with the small-molecules inhibitors, NR uptake in cells will be measured by spectrophotometry at 540±10 nm.
# Keratinocytes from healthy persons or patients with Netherton syndrome are seeded at the density of 4000 cells in 125 μL of medium per well in 96-well plates.
# After seeding, cells are incubated for 48 hours in the following experimental conditions: 37° C.±1° C., 90%±5.0% humidity, and 5%±1% CO2/air. This incubation period allows for cell recovery and adherence and progression to exponential growth phase.
# Prepare inhibitors solutions 2-fold more concentrated than desired. Add 125 μL of these solutions to the wells without changing or removing the medium (125 μL).
# 48 h hours after the beginning of the treatment, carefully remove the medium (containing the tested inhibitor) and rinse the cells very carefully with 250 μL pre-warmed PBS.
# Add 250 μL NR medium and incubate (37° C.±1° C., 90%±5% humidity, and 5.0%±1% CO2/air) for 3±0.1 h. NR medium is the culture medium containing 33 μg/mL of NR. After incubation, remove the NR medium, and carefully rinse cells with 250 μL pre-warmed PBS.
# Measure the absorption (within 60 minutes after adding NR Desorb solution) of the resulting colored solution at 540 nm±10 nm in a microtiter plate reader (spectrophotometer), using the blank as a reference.
# A calculation of cell viability expressed as NRU is made for each concentration of the tested inhibitor by using the mean NRU of the three replicate values per each concentration. This value is compared with the mean NRU of all vehicle values. Relative cell viability is then expressed as percent of untreated vehicle control (DMSO).
# Normal human keratinocytes were seeded in a 96-well tissue culture plate. At 20% of confluence, molecules were added in the culture medium and incubated for 48 h. Neutral red medium was added to every well for an incubation period of 3 h, then the dye was extracted with acidified ethanol solution. Data (FIGS. 2 and 3) represent the mean cell viability after treatment +/−SD compared to mean viability of cells treated with the vehicle only (DMSO). Data represent the mean of 5 individual experiments.
# KLK7 = KLK7 (Homo sapiens, UniProt P49862); test: KLK7 enzyme inhibition assay, fluorogenic substrate Suc-Leu-Leu-Val-Tyr-AMC; type: biochemical; conditions: for IC50: 37° C., 15 min of incubation, pH 8; for selective activity against enzyme: KLK7: Table B, among KLK5, KLK7 and KLK14
# Method: as §1, §2
# [2] = tested on: keratinocytes from a Netherton syndrome patient (NSK); test: Expression of pro-allergic and inflammatory molecules (indirect KLK5 activity) in Netherton syndrome patient keratinocytes; type: cell-based, human; conditions: 72 h, relative to HPRT
# Method: 250,000 keratinocytes from a Netherton syndrome patient (NSK) were seeded in 6 well plates in 2 mL of medium made of: (a) half of complete Green medium: (Dulbecco's Modified Eagle Media) 60%; Ham's F12 30%; FCS 10%; adenin […]; insulin 5 μg/mL; hydrocortisone 0.4 μg/mL; cholera toxin 10 nM; triiodothyronin 2 nM; human recombinant EGF 10 ng/mL; penicillin G/streptomycin 100 U/mL; (b) half of a basal medium (Epilife—Cascade Biologics).
# When confluent, cells were washed 5 times with PBS and 2 mL of complete Green medium without FCS (fetal calf serum) were added per well.
# Inhibitors were added in the culture medium 24 h after medium renewal.
# 350 μL of RLT lysis buffer (Mini Kit QIAGEN)+β-mercapto-ethanol (0.1%) were added per well to extract total RNA. The cell lysate was kept at −80° C. before RNA extraction (Mini Kit QIAGEN).
# In this in cellulo test, KLK5 activity was evaluated by an indirect method. Indeed KLK5 induces TSLP (thymic stromal lymphopoietin), TNFα (tumor necrosis factor alpha) and IL-8 (interleukin 8) expression. If KLK5 activity is inhibited, the expression of these cytokines will be reduced.
# The relative amount of TSLP, TNFα and IL-8 transcripts [relative to HPRT (hypoxanthine phosphoribosyltransferase 1) housekeeping gene] was compared between cells treated or not treated with the inhibitors. The ratio <<treated/not treated>> relative to housekeeping gene reflects KLK5 inhibition.
# Their expression had also been studied even if their mechanism of induction is not known yet.
# The effect of LP73 and CFL33 on the expression of the described pro-allergic and inflammatory cytokines was analyzed on keratinocytes from two different NS patients. Each experiment was performed twice (FIG. 4).
# [3] = Table A, read-out: IC50 (μM) KLK14
# [4] = Table A, read-out: IC50 (μM) KLK7
# [5] = Table A2, read-out: IC50 (nM) KLK7
# Sequence of KLK7 (P49862 30-253): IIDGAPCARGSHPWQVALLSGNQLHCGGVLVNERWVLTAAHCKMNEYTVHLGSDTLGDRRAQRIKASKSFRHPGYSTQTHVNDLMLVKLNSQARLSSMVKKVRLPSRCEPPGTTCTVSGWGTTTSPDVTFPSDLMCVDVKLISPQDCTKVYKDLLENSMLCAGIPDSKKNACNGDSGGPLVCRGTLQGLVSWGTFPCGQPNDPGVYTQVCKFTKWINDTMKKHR
SMILES,"cytotoxicity, neutral red uptake test [1]",IC50 (KLK7; [4]),inhibition at 100 µM (KLK14),selective activity against enzyme: KLK7 (KLK7),also measured
O=C(Oc1cc(F)ccc1F)c1cc2cc(CCl)ccc2oc1=O [CFL5],No noticeable cytotoxicity,0.5 ± 0.04 µM,–,–,IC50 (KLK14; [3]): 39 ± 4 µM; inhibition at 100 µM (KLK5): 35%
COC(=O)c1cccc(OC(=O)c2cc3cc(CCl)ccc3oc2=O)c1 [IK2],No noticeable cytotoxicity,0.68 ± 0.01 µM,67%,KLK7,–
NC(=O)c1ccccc1OC(=O)c1cc2cc(CCl)ccc2oc1=O [IK3],–,–,77%,–,"selective activity against enzyme: KLK14 (KLK14; Table B, among KLK5, KLK7 and KLK14): KLK14; Toxicity, neutral red uptake test ([1]; 1 μM): 16.09±8.32%; Toxicity, neutral red uptake test ([1]; 10 μM): 47.1±4.43%"
NC(=O)c1cccc(OC(=O)c2cc3cc(CCl)ccc3oc2=O)c1 [IK4],No noticeable cytotoxicity,7.8 ± 0.6 µM,–,–,"IC50 (KLK14; [3]): 30 ± 8 µM; IC50 (KLK5; Table A, read-out: IC50 (μM) KLK5): 21.6 ± 5 µM"
"O=C(Oc1ccccc1)c1cc2cc(CBr)ccc2oc1=O [JFR5, Phenyl 6-bromomethyl-2-oxo-2H-1-benzopyran-3-carboxylate]",–,–,–,–,"inhibition at 50 µM (KLK14): 53%; inhibition at 50 µM (KLK5): 34%; cytotoxicity, neutral red uptake test (FIG. 5) [1]: No noticeable cytotoxicity; IC50 (KLK7; [5]): 0.249 ± 0.0035 µM"
"O=C(Oc1cccc(Br)c1)c1cc2cc(CBr)ccc2oc1=O [JFR8, 3-Bromophenyl 6-bromomethyl-2-oxo-2H-1-benzopyran-3-carboxylate]",–,–,–,KLK7,"IC50 (KLK14; Table A2, read-out: IC50 (nM) KLK14): 3 ± 0.1 µM; IC50 (KLK5; Table A2, read-out: IC50 (nM) KLK5): 1.47 ± 0.06 µM; cytotoxicity, neutral red uptake test (FIG. 5) [1]: No noticeable cytotoxicity; IC50 (KLK7; [5]): 0.057 ± 0.002 µM"
"O=C(Oc1cccc(F)c1)c1cc2cc(CBr)ccc2oc1=O [JFR11, 3-Fluorophenyl 6-bromomethyl-2-oxo-2H-1-benzopyran-3-carboxylate]",–,–,–,–,"inhibition at 50 µM (KLK14): 48%; inhibition at 50 µM (KLK5): 42%; cytotoxicity, neutral red uptake test (FIG. 5) [1]: No noticeable cytotoxicity; IC50 (KLK7; [5]): 0.198 ± 0.008 µM"
O=C(Oc1ccc(Cl)cc1)c1cc2cc(CCl)ccc2oc1=O [LP7],No noticeable cytotoxicity,0.463 ± 0.007 µM,–,–,–
O=C(Oc1cccc(I)c1)c1cc2cc(CCl)ccc2oc1=O [LP14],No noticeable cytotoxicity,0.077 ± 0.003 µM,70%,KLK7,inhibition at 100 µM (KLK5): 48%
O=C(Sc1ccccc1)c1cc2cc(CCl)ccc2oc1=O [LP41],No noticeable cytotoxicity,0.39 ± 0.03 µM,67%,–,inhibition at 100 µM (KLK5): 32%
O=C(Oc1cccc(Br)c1)c1cc2cc(CCl)ccc2oc1=O [LP53],No noticeable cytotoxicity,0.065 ± 0.003 µM,41%,KLK7,inhibition at 50 µM (KLK5): 34%
COc1cccc(OC(=O)c2cc3cc(CCl)ccc3oc2=O)c1 [LP55],No noticeable cytotoxicity,8.4 ± 0.2 µM,–,KLK7,–
COc1cc(Cl)cc(OC(=O)c2cc3cc(CCl)ccc3oc2=O)c1 [LP61],No noticeable cytotoxicity,0.13 ± 0.005 µM,–,–,–
O=C(Oc1cccc(Cl)c1Cl)c1cc2cc(CCl)ccc2oc1=O [LP73],No noticeable cytotoxicity,0.063 ± 0.004 µM,–,KLK7,expression of IL-8 ([2]; 1 μM): significantly inhibited; expression of MDC ([2]; 1 μM): significantly inhibited; expression of TARC ([2]; 1 μM): significantly inhibited; expression of TNFα ([2]; 1 μM): significantly inhibited; expression of TSLP ([2]; 1 μM): significantly inhibited; expression of TARC ([2]; 10 μM): inhibited; expression of TSLP ([2]; 10 μM): inhibited
O=C(Oc1ccccc1)c1cc2cc(CCl)ccc2oc1=O [MFS7],No noticeable cytotoxicity,0.235 ± 0.009 µM,45%,KLK7,inhibition at 50 µM (KLK5): 26%
O=C(Oc1cccnc1)c1cc2cc(CCl)ccc2oc1=O [MFS33],No noticeable cytotoxicity,–,60%,–,inhibition at 100 µM (KLK5): 62%; IC50 (KLK7; [5]): 0.0057 ± 0.0003 µM
